The subject of one data set is Vero E6 cells. The settings on record: for CC50: read-out: Vero E6 cytotoxicity CC50.
Data set [1] deals with SARS-CoV-2 (USA_WA1/2020). The data set can be described thus: SARS-CoV-2 cytopathic effect. The class given is cell-based. The settings on record: Vero E6 cells; for EC50: read-out: SARS-CoV-2 CPE EC50. In general terms: Protection from cytopathic effect is a common read-out in antiviral testing.
In the next data set the target is SARS-CoV-2 3CL^pro (Severe acute respiratory syndrome coronavirus 2, UniProt P0DTD1). The class given is biochemical.
[2] abbreviates: Table 2, compounds with partial fluorescence quenching effect.

As a reminder, the CC50 is the concentration that lowers cell viability or growth by half. As usually defined, the EC50 is the concentration that produces a half-maximal response. What is called IC50 is the concentration at which inhibition is half-maximal.

Where two headings read alike, the source gives them in different places. Non-standard residues stand in square brackets, D forms with d. Residues, ends and D or L forms follow the SMILES beside them. *: point of attachment. Nva = CCC[C@H](N)C(=O)O; Cbz = O=C(OCc1ccccc1)*

On to `CC1=NN(c2ccc(C)c(C)c2)C(=O)/C1=N\Nc1cccc(-c2cccc(C(=O)O)c2)c1O` [eltrombopag olamine], for which the “Vero E6 cytotoxicity efficacy” value in the data set with Vero E6 cells (Table 2 quenching compounds) turned out to be 68.67%. For the same molecule, the “SARS-CoV-2 CPE efficacy” value in data set [1] (Table 2 quenching compounds) is recorded as 74.39%.
In the case of `O=C(O)c1ccc(N2C(=O)/C(=C\c3ccc(-c4ccc([N+](=O)[O-])cc4)o3)C=C2c2ccccc2)cc1` [4E1RCat], in the data set on Vero E6 cells (no virus, Table 1 compounds), the “Vero E6 cytotoxicity efficacy” value was found to be 0% and the CC50 is above 20 µM. Besides, in data set [1] (72 h, Table 1 compounds), the “SARS-CoV-2 CPE efficacy” value is recorded as 0% and the EC50 was above 20 µM. In addition, at SARS-CoV-2 3CL^pro (Table 1 compounds), the “3CL^pro inhibition max resp” value turned out to be 76.33%. Further, on SARS-CoV-2 3CL^pro (read-out: 3CL^pro inhibition IC50), the half-inhibitory concentration (IC50) came out at 18.3 µM.
`C/C1=C2/[N-][C@H]([C@H](CC(N)=O)[C@@]2(C)CCC(=O)NC[C@@H](C)OP(=O)([O-])O[C@H]2[C@@H](O)[C@@H](n3cnc4cc(C)c(C)cc43)O[C@@H]2CO)[C@]2(C)N=C(/C(C)=C3N=C(/C=C4N=C1[C@@H](CCC(N)=O)C\4(C)C)[C@@H](CCC(N)=O)[C@]\3(C)CC(N)=O)[C@@H](CCC(N)=O)[C@]2(C)CC(N)=O.[Co+3].[OH-]` [hydroxocobalamin]: the “cytotoxicity to Vero E6 cells” value with Vero E6 cells was “nor cytotoxic to Vero E6 cells”. Further, in the data set with Vero E6 cells (no virus, Table 1 compounds), the “Vero E6 cytotoxicity efficacy” value came to 0% and the CC50 was above 20 µM. The “activity in CPE assay” value in data set [1] was “neither effective in CPE assay”. Further, in data set [1] (72 h, Table 1 compounds), the “SARS-CoV-2 CPE efficacy” value is 0% and the concentration giving a half-maximal response (EC50) is above 20 µM. The “3CL^pro inhibition max resp” value on SARS-CoV-2 3CL^pro (Table 1 compounds) came out at 89.56%.
Consider `CC1(C)OC2=C(C(=O)c3ccccc3C2=O)[C@H](NCc2ccccc2)[C@@H]1O` [CAY-10581], for which, in the data set with Vero E6 cells (no virus, Table 1 compounds), the “Vero E6 cytotoxicity efficacy” value is 0% and the 50% cytotoxic concentration (CC50) was above 20 µM. In addition, in data set [1] (72 h, Table 1 compounds), the “SARS-CoV-2 CPE efficacy” value is on record as 0% and the concentration giving a half-maximal response (EC50) is above 20 µM.
For `CN[C@H](CC(C)C)C(=O)N[C@H]1C(=O)N[C@@H](CC(N)=O)C(=O)N[C@H]2C(=O)N[C@H]3C(=O)N[C@H](C(=O)N[C@H](C(=O)O)c4cc(O)cc(O)c4-c4cc3ccc4O)[C@H](O[C@H]3C[C@](C)(N)[C@@H](O)[C@H](C)O3)c3ccc(c(Cl)c3)Oc3cc2cc(c3O[C@@H]2O[C@H](CO)[C@@H](O)[C@H](O)[C@H]2O[C@H]2C[C@](C)(NCc3ccc(-c4ccc(Cl)cc4)cc3)[C@@H](O)[C@H](C)O2)Oc2ccc(cc2Cl)[C@H]1O.O=P(O)(O)O.O=P(O)(O)O` [oritavancin (diphosphate)], in the data set with Vero E6 cells (no virus, Table 1 compounds), the “Vero E6 cytotoxicity efficacy” value was 23.51% and the cytotoxic concentration (CC50) is 14.1 µM. For the same molecule, in data set [1] (72 h, Table 1 compounds), the “SARS-CoV-2 CPE efficacy” value is listed as 0% and the EC50 was above 20 µM. Further, the “3CL^pro inhibition max resp” value at SARS-CoV-2 3CL^pro (Table 1 compounds) worked out at 93.29%.
Regarding `COCCn1c2c([n+](Cc3cnccn3)c1C)C(=O)c1ccccc1C2=O` [sepantronium bromide], the “Vero E6 cytotoxicity efficacy” value in the data set on Vero E6 cells (no virus, Table 1 compounds) came out at 20.12%. In addition, in data set [1] (72 h, Table 1 compounds), the “SARS-CoV-2 CPE efficacy” value stood at 0%. Further, the “3CL^pro inhibition max resp” value on SARS-CoV-2 3CL^pro (Table 1 compounds) came out at 61.79%.
Turning to `CC#C[C@@H](CC(=O)O)c1ccc(OCc2cccc(-c3ccc(C(F)(F)F)cc3)c2)cc1` [AMG-837], the “Vero E6 cytotoxicity efficacy” value in the data set with Vero E6 cells (Table 2 quenching compounds) was 20.2%. In addition, the “SARS-CoV-2 CPE efficacy” value in data set [1] (Table 2 quenching compounds) worked out at 106.31%. The “3CL^pro inhibition max resp” value on SARS-CoV-2 3CL^pro (setting [2]) amounted to 65.79%.
With `O=C1C(SCCO)=C(SCCO)C(=O)c2ccccc21` [NSC 95397], in the data set on Vero E6 cells (no virus, Table 1 compounds), the “Vero E6 cytotoxicity efficacy” value is on record as 111.33% and the CC50 came to 14.1 µM. Besides, in data set [1] (72 h, Table 1 compounds), the “SARS-CoV-2 CPE efficacy” value is given as 0% and the EC50 was above 20 µM. The “3CL^pro inhibition max resp” value on SARS-CoV-2 3CL^pro (Table 1 compounds) is 98.7%.
Regarding `Cc1cc(SCc2sc(-c3ccc(C(F)(F)F)c(F)c3)nc2C)ccc1OCC(=O)O` [GW-0742], in the data set on Vero E6 cells (no virus, Table 1 compounds), the “Vero E6 cytotoxicity efficacy” value is given as 0% and the half-maximal cytotoxic concentration (CC50) was above 20 µM. In data set [1] (72 h, Table 1 compounds), the “SARS-CoV-2 CPE efficacy” value is on record as 0% and the EC50 was above 20 µM. Also, the “3CL^pro inhibition max resp” value on SARS-CoV-2 3CL^pro (Table 1 compounds) worked out at 126.23%.
For `CCCCCCCc1ccc(CCc2cccc(O)c2C(=O)O)cc1` [MG-149], in the data set on Vero E6 cells (Table 2 quenching compounds), the “Vero E6 cytotoxicity efficacy” value came out at 23.42%.
Turning to `O=C1C(Cl)=C(NCCN2CCOCC2)C(=O)c2ncccc21` [DA-3003–1], in the data set on Vero E6 cells (no virus, Table 1 compounds), the “Vero E6 cytotoxicity efficacy” value was determined as 112% and the CC50 came out at 7.74 µM. For the same molecule, the “activity in CPE assay” value in data set [1] is “exhibited CPE activity”. In data set [1] (72 h, Table 1 compounds), the “SARS-CoV-2 CPE efficacy” value came to 53.77% and the 50% effective concentration (EC50) came out at 4.47 µM.
As to `O=C1Nc2ccc(I)cc2/C1=C/c1cc(Br)c(O)c(Br)c1` [GW5074], in the data set with Vero E6 cells (Table 2 quenching compounds), the “Vero E6 cytotoxicity efficacy” value is on record as 20.1% and the cytotoxic concentration (CC50) was determined as 11.2 µM. Moreover, the “3CL^pro inhibition max resp” value on SARS-CoV-2 3CL^pro (setting [2]) was determined as 63.16%.
Consider `COc1ccc2cc(-c3cc(-c4cc(Cl)cc(Cl)c4)nn3[C@@H](C)c3ccc(C(=O)NCCC(=O)O)cc3)ccc2c1` [MK 0893], for which, in the data set with Vero E6 cells (no virus, Table 1 compounds), the “Vero E6 cytotoxicity efficacy” value is recorded as 80.04%. Further, the “SARS-CoV-2 CPE efficacy” value in data set [1] (72 h, Table 1 compounds) came to 23.89%. Besides, the “3CL^pro inhibition max resp” value at SARS-CoV-2 3CL^pro (Table 1 compounds) is 95.77%.
Consider vitamin B12, for which, in the data set on Vero E6 cells (no virus, Table 1 compounds), the “Vero E6 cytotoxicity efficacy” value is listed as 0% and the CC50 was above 20 µM. Moreover, in data set [1] (72 h, Table 1 compounds), the “SARS-CoV-2 CPE efficacy” value was 0% and the concentration for a half-maximal effect (EC50) is above 20 µM. The “3CL^pro inhibition max resp” value at SARS-CoV-2 3CL^pro was 71.06%.
In the case of `CCC[C@@H](C=O)NC(=O)[C@H](CC(C)C)NC(=O)[C@H](CC(C)C)NC(=O)OCc1ccccc1` [MG-115] (Cbz-Leu-Leu-[Nva]-aldehyde), in the data set with Vero E6 cells (no virus, Table 1 compounds), the “Vero E6 cytotoxicity efficacy” value was found to be 115.48% and the CC50 was found to be 1.13 µM. Moreover, at SARS-CoV-2 3CL^pro (Table 1 compounds), the “3CL^pro inhibition max resp” value came out at 74.89%.
Consider `O=C(Nc1cc(C(F)(F)F)cc(C(F)(F)F)c1)c1cnc(Cl)nc1C(F)(F)F` [SP 100030], for which, in the data set on Vero E6 cells (no virus, Table 1 compounds), the “Vero E6 cytotoxicity efficacy” value is 0% and the half-maximal cytotoxic concentration (CC50) is above 20 µM. In data set [1] (72 h, Table 1 compounds), the “SARS-CoV-2 CPE efficacy” value is 0% and the EC50 was above 20 µM.
For `Cc1[nH]c(/C=C2\C(=O)Nc3cc(-c4ccccc4)ccc32)c(C)c1CCC(=O)O` [SU 16f], in the data set on Vero E6 cells (no virus, Table 1 compounds), the “Vero E6 cytotoxicity efficacy” value was determined as 23.57% and the half-maximal cytotoxic concentration (CC50) came out at 7.94 µM. Besides, in data set [1] (72 h, Table 1 compounds), the “SARS-CoV-2 CPE efficacy” value amounted to 0% and the EC50 was above 20 µM.
For `Brc1c(Br)c(Br)c2n[nH]nc2c1Br` [TBB], in the data set on Vero E6 cells (no virus, Table 1 compounds), the “Vero E6 cytotoxicity efficacy” value stood at 80.93% and the half-maximal cytotoxic concentration (CC50) is 8.91 µM. Further, the “3CL^pro inhibition max resp” value at SARS-CoV-2 3CL^pro (Table 1 compounds) turned out to be 77.96%.
`CCCCCCCCCCCCCCCCC(C(=O)O)C(O)(CC(=O)O)C(=O)O` (stereo not shown) [agaric acid]: in the data set with Vero E6 cells (no virus, Table 1 compounds), the “Vero E6 cytotoxicity efficacy” value is 0% and the CC50 was above 20 µM. Moreover, in data set [1] (72 h, Table 1 compounds), the “SARS-CoV-2 CPE efficacy” value is recorded as 0% and the EC50 is above 20 µM. In addition, the “3CL^pro inhibition max resp” value at SARS-CoV-2 3CL^pro (Table 1 compounds) stood at 110.16%.
As to `Cc1cc(O[C@@H](CCC(F)(F)F)c2ccc(C(=O)NCCC(=O)O)cc2)cc(C)c1-c1ccc(C(C)(C)C)cc1` [adomeglivant], in the data set with Vero E6 cells (Table 2 quenching compounds), the “Vero E6 cytotoxicity efficacy” value is 36.97%. In addition, in data set [1] (Table 2 quenching compounds), the “SARS-CoV-2 CPE efficacy” value was 49.2%.
As to `O.O=C(OC[C@H]1O[C@@H](OC(=O)c2cc(O)c(O)c(O)c2)[C@H](OC(=O)c2cc(O)c(O)c(O)c2)[C@@H](OC(=O)c2cc(O)c(O)c(O)c2)[C@@H]1OC(=O)c1cc(O)c(O)c(O)c1)c1cc(O)c(O)c(O)c1` [penta-O-galloyl-β-D-glucose hydrate], in the data set on Vero E6 cells (no virus, Table 1 compounds), the “Vero E6 cytotoxicity efficacy” value is reported as 80.28% and the CC50 came to 11.2 µM. Further, the “3CL^pro inhibition max resp” value on SARS-CoV-2 3CL^pro (Table 1 compounds) is reported as 109.94%.
As for `Oc1c(Cl)cc(Cl)c(Cl)c1Cc1c(O)c(Cl)cc(Cl)c1Cl` [hexachlorophene], the “Vero E6 cytotoxicity efficacy” value in the data set on Vero E6 cells (Table 2 quenching compounds) was determined as 63.02%.
For `CC(C)c1ccc2c(c1)c(SC(C)(C)C)c(CC(C)(C)C(=O)O)n2Cc1ccc(Cl)cc1` [MK-886], in the data set on Vero E6 cells (Table 2 quenching compounds), the “Vero E6 cytotoxicity efficacy” value is reported as 40.83% and the CC50 was found to be 14.1 µM. Besides, the “3CL^pro inhibition max resp” value on SARS-CoV-2 3CL^pro (setting [2]) is on record as 109.11%.

For the origin of these results see paper PMC7507806 (ACS Pharmacology & Translational Science, 2020).
